Experimental data published in PubChem BioAssay AID330 (DTP/NCI, 2004).
“And” between values parts separate entries of the source, which are not always exact repeats. Equal values may be shown once. Inconclusive results and toxic doses are left out. The calls were made as follows: active = survival T/C of 150% or more; inactive = T/C below 125% in these data.

System: P388 leukemia ip, CD2F1 mice, survival T/C
Assay: NCI In Vivo Anticancer Drug Screen. Data for tumor model P388 Leukemia (intraperitoneal) in CD2F1 (CDF1) mice
Settings: endpoint: median survival time, higher = longer survival
Procedure, shortened: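 Mice carrying the transplanted tumor received test compound or vehicle. Survival was recorded in each group, and the value is the treated-group measurement divided by that of the vehicle-treated control group.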

[1] = dose: 50.0 mg/kg/injection, schedule: Q01DX009 (ip), vehicle: saline
[2] = dose: 100.0 mg/kg/injection, schedule: Q01DX009 (ip), vehicle: saline
[3] = dose: 50.0 mg/kg/injection, schedule: Q01DX005 (ip), vehicle: saline with Tween-80
[4] = dose: 100.0 mg/kg/injection, schedule: Q01DX005 (ip), vehicle: saline with Tween-80
[5] = dose: 200.0 mg/kg/injection, schedule: Q01DX005 (ip), vehicle: saline with Tween-80
[6] = dose: 60.0 mg/kg/injection, schedule: Q01DX005 (ip), vehicle: saline with Tween-80
[7] = dose: 120.0 mg/kg/injection, schedule: Q01DX005 (ip), vehicle: saline with Tween-80
[8] = dose: 240.0 mg/kg/injection, schedule: Q01DX005 (ip), vehicle: saline with Tween-80
[9] = dose: 100.0 mg/kg/injection, schedule: Q04DX003 (ip), vehicle: saline with Tween-80
[10] = dose: 200.0 mg/kg/injection, schedule: Q04DX003 (ip), vehicle: saline with Tween-80
[11] = dose: 400.0 mg/kg/injection, schedule: Q04DX003 (ip), vehicle: saline with Tween-80
[12] = dose: 25.0 mg/kg/injection, schedule: Q01DX009 (ip), vehicle: saline with Tween-80
[13] = dose: 50.0 mg/kg/injection, schedule: Q01DX009 (ip), vehicle: saline with Tween-80
[14] = dose: 100.0 mg/kg/injection, schedule: Q01DX009 (ip), vehicle: saline with Tween-80
[15] = dose: 12.5 mg/kg/injection, schedule: Q01DX009 (ip), vehicle: saline
[16] = dose: 25.0 mg/kg/injection, schedule: Q01DX009 (ip), vehicle: saline

Measured: T/C

COc1cccc2c1C(=O)c1c(O)c3c(c(O)c1C2=O)CC(O)(C(C)=O)CC3O (centres undefined)
inactive: dose: 6.25 mg/kg/injection, schedule: Q01DX009 (ip), vehicle: other 100 % of control | dose: 12.5 mg/kg/injection, schedule: Q01DX009 (ip), vehicle: other 92 % of control | dose: 25.0 mg/kg/injection, schedule: Q01DX009 (ip), vehicle: other 91 % of control | dose: 50.0 mg/kg/injection, schedule: Q01DX009 (ip), vehicle: other 91 % of control | dose: 100.0 mg/kg/injection, schedule: Q01DX009 (ip), vehicle: other 119 % of control | dose: 200.0 mg/kg/injection, schedule: Q01DX009 (ip), vehicle: other 92 % of control | dose: 400.0 mg/kg/injection, schedule: Q01DX009 (ip), vehicle: other 98 % of control

CCCOCC(=O)OC
inactive: [1] 98 % of control | [2] 99 % of control | dose: 200.0 mg/kg/injection, schedule: Q01DX009 (ip), vehicle: saline 100 % of control

C/C(Cl)=C/CN(C/C=C(/C)Cl)CCO
inactive: [3] 101 % of control | [4] 102 % of control

COn1nnc2ccc(Cl)cc21
inactive: dose: 50.0 mg/kg/injection, schedule: Q01DX009 (ip), vehicle: Klucel (hydroxypropylcellulose) (HPC) 99 % of control | dose: 100.0 mg/kg/injection, schedule: Q01DX009 (ip), vehicle: Klucel (hydroxypropylcellulose) (HPC) 100 % of control | dose: 200.0 mg/kg/injection, schedule: Q01DX009 (ip), vehicle: Klucel (hydroxypropylcellulose) (HPC) 100 % of control

COC1OCN(C2CCCCC2)CC1(C)C (centres undefined)
inactive: dose: 17.5 mg/kg/injection, schedule: Q01DX009 (ip), vehicle: saline with Tween-80 100 % of control | dose: 35.0 mg/kg/injection, schedule: Q01DX009 (ip), vehicle: saline with Tween-80 104 % of control | dose: 70.0 mg/kg/injection, schedule: Q01DX009 (ip), vehicle: saline with Tween-80 117 % of control

COC(=O)Nc1csc2c1NC(=O)CCCC2
inactive: dose: 200.0 mg/kg/injection, schedule: Q04DX003 (ip), vehicle: Klucel (hydroxypropylcellulose) (HPC) 110 % of control | dose: 400.0 mg/kg/injection, schedule: Q04DX003 (ip), vehicle: Klucel (hydroxypropylcellulose) (HPC) 105 % of control

O=C1OC(C2OC(=O)C(=O)C2C(=O)c2ccc(Cl)c(Cl)c2)C(C(=O)c2ccc(Cl)c(Cl)c2)C1=O (centres undefined)
inactive: dose: 60.0 mg/kg/injection, schedule: Q01DX005 (ip), vehicle: saline 100 % of control | dose: 120.0 mg/kg/injection, schedule: Q01DX005 (ip), vehicle: saline 96 % of control | dose: 240.0 mg/kg/injection, schedule: Q01DX005 (ip), vehicle: saline 90 % of control

Cc1[nH]nc2c1NC(=O)OC2C (centres undefined)
inactive: [3] 108 % of control | [4] 99 % of control | [5] 101 % of control

CN(C)C(=O)On1cc(Cl)cc1C#N
inactive: dose: 6.25 mg/kg/injection, schedule: Q04DX003 (ip), vehicle: Klucel (hydroxypropylcellulose) (HPC) 102 % of control | dose: 12.5 mg/kg/injection, schedule: Q04DX003 (ip), vehicle: Klucel (hydroxypropylcellulose) (HPC) 98 % of control | dose: 25.0 mg/kg/injection, schedule: Q04DX003 (ip), vehicle: Klucel (hydroxypropylcellulose) (HPC) 100 % of control | dose: 75.0 mg/kg/injection, schedule: Q04DX003 (ip), vehicle: Klucel (hydroxypropylcellulose) (HPC) 98 % of control

CCOC1Oc2ccccc2-c2nc(C)c(C#N)cc21 (centres undefined)
inactive: [6] 90 % of control | [7] 88 % of control | [8] 90 % of control

CCCCCCC(=O)CC(SCCO)c1ccccc1Cl (centres undefined)
inactive: [6] 92 % of control | [7] 107 % of control | [8] 114 % of control

CC(=O)OCC(=O)[C@@]1(O)CC[C@H]2[C@@H]3C[C@H](C)C4=CC(=O)CC[C@]4(C)[C@H]3[C@@H](O)C[C@@]21C
inactive: [9] 112 % of control | [10] 108 % of control | [11] 95 % of control

CCCCNC(=S)N/N=C/c1ccccn1
inactive: [12] 101 % of control | [13] 94 % of control | [14] 111 % of control

Cc1cc(OCc2nnc3n2S(=O)(=O)c2ccccc2N3C)ccc1Cl
inactive: [6] 87 % of control | [7] 90 % of control

O=c1c2cncnc2sc2nc3ccccc3n12
inactive: [6] 95 % of control | [7] 94 % of control | [8] 88 % of control

CN1C2=C(C(=O)CC2)C(c2ccccc2)C2=C1CCC2=O
inactive: dose: 100.0 mg/kg/injection, schedule: Q01DX001 (ip), vehicle: saline with Tween-80 96 % of control | dose: 200.0 mg/kg/injection, schedule: Q01DX001 (ip), vehicle: saline with Tween-80 96 % of control | dose: 400.0 mg/kg/injection, schedule: Q01DX001 (ip), vehicle: saline with Tween-80 96 % of control

CCCCC[CH2][GeH]([CH2]CCCCC)[O][GeH]([CH2]CCCCC)[CH2]CCCCC
inactive: [15] 100 % of control and 97 % of control | [16] 104 % of control and 90 % of control | [1] 100 % of control and 101 % of control and 106 % of control | [2] 120 % of control and 97 % of control

CC(C)CN(CC(C)C)c1nn[nH]n1
inactive: [3] 103 % of control | [4] 100 % of control | [5] 103 % of control

CC[As](CCO)SC1CC(OC(=O)c2ccccc2)C(OC(=O)c2ccccc2)C(COC(=O)c2ccccc2)O1 (centres undefined)
inactive: [12] 110 % of control | dose: 50.0 mg/kg/injection, schedule: Q01DX009 (ip), vehicle: saline + alcohol 124 % of control | [13] 96 % of control | [14] 110 % of control

CC=C=CCN(C)Cc1ccccc1
inactive: dose: 6.25 mg/kg/injection, schedule: Q01DX009 (ip), vehicle: saline 107 % of control | [15] 94 % of control | [16] 109 % of control | dose: 50.0 mg/kg/injection, schedule: Q04DX003 (ip), vehicle: Klucel (hydroxypropylcellulose) (HPC) 108 % of control | dose: 100.0 mg/kg/injection, schedule: Q04DX003 (ip), vehicle: Klucel (hydroxypropylcellulose) (HPC) 88 % of control

O=C1CCCCCCCC(=O)Nc2ccc3nc4ccccc4c(c3c2)SCCCCCCCCCCCCSc2c3ccccc3nc3ccc(cc23)N1
inactive: [3] 105 % of control | [4] 107 % of control | [5] 104 % of control

Clc1cc2nsnc2cc1Cl
inactive: dose: 50.0 mg/kg/injection, schedule: Q04DX003 (ip), vehicle: saline 100 % of control | dose: 100.0 mg/kg/injection, schedule: Q04DX003 (ip), vehicle: saline 94 % of control | dose: 200.0 mg/kg/injection, schedule: Q04DX003 (ip), vehicle: saline 104 % of control | dose: 400.0 mg/kg/injection, schedule: Q04DX003 (ip), vehicle: saline 101 % of control

CCOc1nc(N)nc(C)c1N=Nc1ccc(C)cc1
inactive: dose: 60.0 mg/kg/injection, schedule: Q01DX005 (ip), vehicle: Klucel + Tween-80 110 % of control | dose: 120.0 mg/kg/injection, schedule: Q01DX005 (ip), vehicle: Klucel + Tween-80 116 % of control | dose: 240.0 mg/kg/injection, schedule: Q01DX005 (ip), vehicle: Klucel + Tween-80 113 % of control

Cc1c2c(C(N)=O)nccc2c(C)c2c1c1ccccc1n2Cc1ccccc1
inactive: dose: 1.56 mg/kg/injection, schedule: Q04DX003 (ip), vehicle: distilled water + Tween-80 89 % of control | dose: 3.13 mg/kg/injection, schedule: Q04DX003 (ip), vehicle: distilled water + Tween-80 89 % of control | dose: 12.5 mg/kg/injection, schedule: Q04DX003 (ip), vehicle: distilled water + Tween-80 86 % of control | dose: 25.0 mg/kg/injection, schedule: Q04DX003 (ip), vehicle: distilled water + Tween-80 87 % of control | dose: 50.0 mg/kg/injection, schedule: Q04DX003 (ip), vehicle: distilled water + Tween-80 100 % of control | dose: 100.0 mg/kg/injection, schedule: Q04DX003 (ip), vehicle: distilled water + Tween-80 95 % of control | dose: 200.0 mg/kg/injection, schedule: Q04DX003 (ip), vehicle: distilled water + Tween-80 101 % of control

CC(C)(C)N1C(=O)[N+](C)(CCCCCC[N+]2(C)N=C([O-])N(C(C)(C)C)C2=O)N=C1[O-] (centres undefined)
inactive: [9] 95 % of control | [10] 100 % of control | [11] 108 % of control

COc1ccccc1N1CCN(C(=O)CCCl)CC1
inactive: dose: 60.0 mg/kg/injection, schedule: Q01DX005 (ip), vehicle: Klucel (hydroxypropylcellulose) (HPC) 109 % of control | dose: 120.0 mg/kg/injection, schedule: Q01DX005 (ip), vehicle: Klucel (hydroxypropylcellulose) (HPC) 103 % of control | dose: 240.0 mg/kg/injection, schedule: Q01DX005 (ip), vehicle: Klucel (hydroxypropylcellulose) (HPC) 105 % of control
